Reference: US20250035641A1, “COMPOSITIONS AND METHODS RELATED TO PROTEIN LABELING” (The Chinese University of Hong Kong, priority 2023, published 2025)

Experiments:
Assay type in all cases: cell-based
HTN-CK2α [1] = target: T1, HTN-CK2α (Homo sapiens, UniProt P68400); test: O-GlcNAcylation of HTN-CK2α with 0tfOGT; design: 0TPR(463-1046)-; expressed in transfected cells; details: vs negative control OGTAC-1H
Protocol: FIGS. 18A and 18B: Immunoblotting analysis of the global O-GlcNAcylation inducing effect of truncated OGTAC-4 and OGTAC-1 on HTN-BRD4 and HTN-CK2α respectively. (A), O-GlcNAcylation inducing effect of OGTAC-4 is dependent on the expression of 0tfOGT. […] The quantification was conducted by immunoblot signal of probe treatment/control as the mean±s.e.m. of n=2 biologically independent experiments. TR, transfection reagent.
Target sequence in this assay (P68400 with tags, fused parts or gaps): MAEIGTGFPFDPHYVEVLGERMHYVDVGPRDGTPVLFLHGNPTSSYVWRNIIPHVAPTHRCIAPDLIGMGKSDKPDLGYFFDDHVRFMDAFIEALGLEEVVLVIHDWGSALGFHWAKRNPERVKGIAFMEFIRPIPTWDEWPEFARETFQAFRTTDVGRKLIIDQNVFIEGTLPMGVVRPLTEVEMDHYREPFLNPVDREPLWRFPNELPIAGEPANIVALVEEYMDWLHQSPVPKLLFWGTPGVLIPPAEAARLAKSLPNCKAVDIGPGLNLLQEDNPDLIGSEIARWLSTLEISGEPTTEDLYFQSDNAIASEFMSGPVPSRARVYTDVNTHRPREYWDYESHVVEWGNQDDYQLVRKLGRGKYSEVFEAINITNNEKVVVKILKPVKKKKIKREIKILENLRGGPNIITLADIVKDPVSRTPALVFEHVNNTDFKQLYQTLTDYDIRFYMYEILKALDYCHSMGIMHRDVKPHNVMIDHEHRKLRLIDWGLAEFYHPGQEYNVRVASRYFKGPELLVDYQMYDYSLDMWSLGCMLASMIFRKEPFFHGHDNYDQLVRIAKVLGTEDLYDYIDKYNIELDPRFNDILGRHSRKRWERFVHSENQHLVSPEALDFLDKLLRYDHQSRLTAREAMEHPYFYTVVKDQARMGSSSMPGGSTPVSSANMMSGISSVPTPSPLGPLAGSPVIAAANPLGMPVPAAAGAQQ
Target sequence in this assay (P62942+O15294 fused P62942:F37V partner): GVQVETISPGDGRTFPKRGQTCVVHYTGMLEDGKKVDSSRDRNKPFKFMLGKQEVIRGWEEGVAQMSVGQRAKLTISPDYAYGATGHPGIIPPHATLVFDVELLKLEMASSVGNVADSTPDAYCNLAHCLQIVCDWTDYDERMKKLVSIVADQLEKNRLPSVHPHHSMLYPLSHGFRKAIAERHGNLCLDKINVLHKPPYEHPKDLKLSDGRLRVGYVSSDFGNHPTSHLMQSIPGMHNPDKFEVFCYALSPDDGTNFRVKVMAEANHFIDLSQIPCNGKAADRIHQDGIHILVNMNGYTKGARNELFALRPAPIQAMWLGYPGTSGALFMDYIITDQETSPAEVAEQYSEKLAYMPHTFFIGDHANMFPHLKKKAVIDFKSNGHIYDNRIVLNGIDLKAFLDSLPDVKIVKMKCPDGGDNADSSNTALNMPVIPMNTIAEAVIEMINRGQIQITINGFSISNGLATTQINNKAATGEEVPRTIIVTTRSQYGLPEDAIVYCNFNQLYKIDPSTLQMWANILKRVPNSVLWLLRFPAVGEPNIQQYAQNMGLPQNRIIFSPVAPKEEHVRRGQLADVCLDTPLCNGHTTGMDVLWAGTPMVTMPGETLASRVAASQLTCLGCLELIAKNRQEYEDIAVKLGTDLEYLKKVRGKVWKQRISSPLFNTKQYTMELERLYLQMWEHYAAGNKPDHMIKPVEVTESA

HTN-CK2α [2] = target: T1, HTN-CK2α; test: Immunoblot of HTN-CK2α O-GlcNAcylation in HEK293T cells co-expressing fOGT
From the text: Ck2α is a well-studied OGT substrate.^17,25 Its Ser347 is conservatively O-GlcNAcylated and this modification was reported to affect its kinase activity.^16,17 We first co-expressed HTN-Ck2α and fOGT in HEK293T cells at different ratio and found the basal O-GlcNAcylation level of HTN-Ck2α was higher than what we detected in the case of HTN-BRD4. Therefore, a lower ratio of fOGT expression (1:100) was selected for the assessment of OGTAC potency (FIG. 9). […] The induction of specific O-GlcNAcylation on HTN-Ck2α was further confirmed by mass-shift assay. […] To validate the direct binding to both fOGT and HTN-Ck2α is critical, we exploited AP 1867 and rhodamine ligand, which bind to fOGT and HTN-Ck2α respectively, to co-treat with OGTAC-1.
During immunoblotting study, we noticed that even for whole cell lysate (WCL), RL2 antibody band (green) and HTN-CK2α protein band (red) are perfectly overlapped and clearly distinguishable from other bands on blot (FIG. 6B). We assessed the OGTAC treatment effects by quantifying the RL2 signal that is overlapping with HTN-Ck2α in WCL, and found they are corresponding with the results achieved by IP-WB method (FIG. 6C). Therefore, we quantify the intensity of RL2 band that overlapping with HTN-CK2α level instead of IP CK2α in later study.
For each IP reaction, 2.2×10^6 HEK293T cells were seed in 10 cm dish. After cells attached, transfection reagents and plasmids were prepared and added in DMEM. After 24 h transfection, media were replaced by fresh warm complete media with DMSO or probes. For washout study, after 4 h treatment, media with DMSO or OGTAC-4 (500 nM) were replaced by fresh media with DMSO or AP1867 (50 μM) for further incubation. After certain time of OGTACs treatment, cells were collected by cold PBS and lysed by 200 μL complete IP lysis buffer. The lysate was incubated on ice for 20 min, spun down at 14,000 RPM at 4° C. for 15 mins, and the supernatant were collected for bicinchoninic acid (BCA) assay and normalized to a final 2 mg/mL. For input, 20 μL of diluted sample was reacted with equal volume of 10 μM TMR ligand in IP lysis buffer and rotate gently at RT for 15 mins. The remaining samples were subjected to protein A/G magnetic beads (MedChemExpress, HY-K0202), which pre-binding with protein target protein antibody. For samples for LC-MS/MS or HTN-BRD4 mutant constructs. Halo-Trap Magnetic Agarose (Proteintech, otma) was used to incubate with protein lysates. After gentle rotation at 4° C. for at least 16 h, the beads were washed with IP lysis buffer and boiled in 40 μL 2×SDS-loading buffer (Biorad #1610747) for 5 mins to elute proteins from beads. Eluted samples were directly subjected into WB analysis. To get stronger signal of RL2, we used anti-mouse-HRP (Cell signaling, #7076) as secondary antibody for RL2 and anti-rabbit-DyLight 488 (Invitrogen, #35552) as secondary antibody for total target proteins.
In general, cells (from 12 well plate) were lysed by 80 μl RIPA lysis buffer (Thermo Scientic 89901) supplemented with 20 μM OGA inhibitor (Thaimet G, Bidepharm BD571819) and 100X protease inhibitor (MedChemExpress, HY-K0010), incubated on ice for 20 min, spun down at 14,000 RPM at 4° C. for 15 mins, and the supernatant were collected for bicinchoninic acid (BCA) assay and normalizedeto a final 2 mg/mL concentration. About 30 μg of protein samples were loaded for sodium dodecyl sulfatepolyacrylamide gel electrophoresis (SDS-PADE) and blotted with indicated antibodies.
Target sequence in this assay (P68400 with tags, fused parts or gaps): as the sequence (P68400 with tags, fused parts or gaps) above
Target sequence in this assay (P62942+O15294 fused P62942:F37V partner): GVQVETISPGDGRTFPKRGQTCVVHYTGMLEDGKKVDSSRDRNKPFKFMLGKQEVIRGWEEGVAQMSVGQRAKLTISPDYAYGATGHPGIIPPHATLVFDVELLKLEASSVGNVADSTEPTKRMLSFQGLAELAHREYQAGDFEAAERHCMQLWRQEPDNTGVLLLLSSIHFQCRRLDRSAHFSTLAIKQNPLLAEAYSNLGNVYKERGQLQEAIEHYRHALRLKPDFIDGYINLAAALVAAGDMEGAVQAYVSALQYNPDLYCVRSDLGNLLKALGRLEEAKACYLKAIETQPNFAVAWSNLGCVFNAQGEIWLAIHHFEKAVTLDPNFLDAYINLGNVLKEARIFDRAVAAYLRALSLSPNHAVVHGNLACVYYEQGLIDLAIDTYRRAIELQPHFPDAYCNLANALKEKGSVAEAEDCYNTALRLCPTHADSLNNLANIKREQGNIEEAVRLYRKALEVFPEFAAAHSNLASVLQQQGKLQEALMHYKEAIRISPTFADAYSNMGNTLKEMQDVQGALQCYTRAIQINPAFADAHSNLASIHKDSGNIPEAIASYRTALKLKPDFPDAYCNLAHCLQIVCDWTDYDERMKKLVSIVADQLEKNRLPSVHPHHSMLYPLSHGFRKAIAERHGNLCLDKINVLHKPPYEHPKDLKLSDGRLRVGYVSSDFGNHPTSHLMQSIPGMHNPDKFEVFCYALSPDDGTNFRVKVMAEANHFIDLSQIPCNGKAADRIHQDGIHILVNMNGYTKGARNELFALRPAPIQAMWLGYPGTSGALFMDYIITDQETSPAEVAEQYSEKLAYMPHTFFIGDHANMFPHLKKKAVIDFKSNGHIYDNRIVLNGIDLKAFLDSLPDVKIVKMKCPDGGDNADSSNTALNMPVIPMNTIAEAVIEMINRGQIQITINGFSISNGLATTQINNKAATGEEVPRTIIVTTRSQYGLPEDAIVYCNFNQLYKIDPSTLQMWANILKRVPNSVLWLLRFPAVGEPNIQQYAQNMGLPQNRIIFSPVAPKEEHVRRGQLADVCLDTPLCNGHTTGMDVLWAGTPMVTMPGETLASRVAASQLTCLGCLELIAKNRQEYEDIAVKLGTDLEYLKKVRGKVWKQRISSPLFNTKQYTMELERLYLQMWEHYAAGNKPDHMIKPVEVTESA

endogenous BRD4 = target: T2, endogenous BRD4 (Homo sapiens, UniProt O60885); test: IP-WB of endogenous BRD4 in cell line stably expressing fOGT
T2 construct: endogenous BRD4 in cell line stably expressing fOGT; endogenous in cells
From the text: We next pursued the induction of POI O-GlcNAcylation independent of Halotag; this could facilitate the induction of O-GlcNAcylation on endogenous POIs for their functional dissection. […] As OGTAC-4 directly recruit BRD4, we first try to assess its potency on endogenous BRD4 in cell line stably expressing fOGT. […] Then, we overexpressed BRD4 together with fOGT in HEK293T cells to accommodate the readout to fit in IP-WB detection limit. As expected, in the co-expression system, we validated the O-GlcNAcylation inducing effect of OGTAC-4. […] Of note, OGTAC-4 promoted BRD4 O-GlcNAcylation and the formation of a stable ternary complex between BRD4 and fOGT at concentrations as low as 3 nM (FIG. 4C & FIG. 14). […] This may be due to the sub-stoichiometric catalytic activity of OGTAC-4; at lower concentration, OGTAC-4 can still be effective because after enzymatic transfer of O-GlcNAc from fOGT active site to BRD4, the BRD4 would dissociate from the original ternary complex and other unmodified BRD4 could be recruited to fOGT by OGTAC-4. However, OGTAC-1 covalently linked to HTN-BRD4, and AP1867 binds tightly to fOGT. therefore, once HTN-BRD4 dissociated, free OGTAC-1 molecules may form binary complex with fOGT and inhibit other HTN-BRD4 from formation of new ternary complex. […]

| Structure (SMILES) | O-GlcNAcylation level of HTN-CK2α with 0tfOGT (HTN-CK2α [1]) | time at which induction of HTN-CK2α O-GlcNAcylation happened (HTN-CK2α [2]; 250 nM) [h] | time of peak induction of HTN-CK2α O-GlcNAcylation (HTN-CK2α [2]; 250 nM) [h] | fold increase of O-GlcNAcylation on HTN-CK2α, whole cell lysate WB (HTN-CK2α [2]; 500 nM and 1 μM) | concentration of peak induction of HTN-CK2α O-GlcNAcylation (HTN-CK2α [2]; 24 h treatment) [µM] | HTN-CK2α O-GlcNAcylation inducing effect among OGTAC-1/2/3 (HTN-CK2α [2]; IP-WB, fOGT ratio 1:100) | O-GlcNAc signal on endogenous BRD4 (IP-WB, RL2) (endogenous BRD4) |
| --- | --- | --- | --- | --- | --- | --- | --- |
| CC[C@H](C(=O)N1CCCC[C@H]1C(=O)O[C@H](CCc1ccc(OC)c(OC)c1)c1cccc(OCC(=O)NCCOCCOCCCCCCCl)c1)c1cc(OC)c(OC)c(OC)c1 [OGTAC-1, (R)-1-(3-(2-((2-(2-((6-chlorohexyl)oxy)ethoxy)ethyl)amino)-2-oxoethoxy)phenyl)-3-(3,4-dimethoxyphenyl)propyl (S)-1-((S)-2-(3,4,5-trimethoxyphenyl)butanoyl) piperidine-2-carboxylate] | higher O-GlcNAcylation level | ≤ 4 | 8 | higher fold increase of O-GlcNAcylation | 1 | prevailed among 3 OGTACs | – |
| CC[C@H](C(=O)N1CCCC[C@H]1C(=O)O[C@H](CCc1ccc(OC)c(OC)c1)c1cccc(OCC(=O)NCCCCCCNC(=O)C[C@@H]2N=C(c3ccc(Cl)cc3)c3c(sc(C)c3C)-n3c(C)nnc32)c1)c1cc(OC)c(OC)c(OC)c1 [OGTAC-4, (R)-1-(3-(2-((6-(2-((S)-4-(4-chlorophenyl)-2,3,9-trimethyl-6H-thieno[3,2-f[]8 1,2,4]triazolo[4,3-a][1,4]diazepin-6-yl)acetamido)hexyl)amino)-2-oxoethoxy)phenyl)-3-(3,4-dimethoxyphenyl)propyl (S)-1-((S)-2-(3,4,5-trimethoxyphenyl)butanoyl)piperidine-2-carboxylate] | – | – | – | – | – | – | failed to detect any signal |
